Source: publication PMC6026185 (Scientific Reports, 2018)
“Also recorded” adds a separate entry of the source. Read-outs that look alike come from different tables or passages of the source. One block for each molecule: values may come before it.

Experiments:
hNKCC1A = biological target: T1, hNKCC1A (Homo sapiens, UniProt P55011); test: 86Rb+ uptake in hNKCC1A-expressing Xenopus laevis oocytes; format: cell-based; details: for IC50 / IC50 for hNKCC1A, IC50 (µM) (range): 86Rb+ uptake, Xenopus oocytes, 5 min, corrected for uninjected oocytes, median and range of 3–7 experiments; for Ratio hNKCC1A/ hNKCC1B: ratio of IC50s
T1 construct: Full-length NKCC1 (NKCC1A) comprises ~1200 amino acids; expressed in transfected cells; host or cells: Xenopus laevis oocytes injected with cRNA (pXOOM vector)
T1 sequence (P55011 1-1212): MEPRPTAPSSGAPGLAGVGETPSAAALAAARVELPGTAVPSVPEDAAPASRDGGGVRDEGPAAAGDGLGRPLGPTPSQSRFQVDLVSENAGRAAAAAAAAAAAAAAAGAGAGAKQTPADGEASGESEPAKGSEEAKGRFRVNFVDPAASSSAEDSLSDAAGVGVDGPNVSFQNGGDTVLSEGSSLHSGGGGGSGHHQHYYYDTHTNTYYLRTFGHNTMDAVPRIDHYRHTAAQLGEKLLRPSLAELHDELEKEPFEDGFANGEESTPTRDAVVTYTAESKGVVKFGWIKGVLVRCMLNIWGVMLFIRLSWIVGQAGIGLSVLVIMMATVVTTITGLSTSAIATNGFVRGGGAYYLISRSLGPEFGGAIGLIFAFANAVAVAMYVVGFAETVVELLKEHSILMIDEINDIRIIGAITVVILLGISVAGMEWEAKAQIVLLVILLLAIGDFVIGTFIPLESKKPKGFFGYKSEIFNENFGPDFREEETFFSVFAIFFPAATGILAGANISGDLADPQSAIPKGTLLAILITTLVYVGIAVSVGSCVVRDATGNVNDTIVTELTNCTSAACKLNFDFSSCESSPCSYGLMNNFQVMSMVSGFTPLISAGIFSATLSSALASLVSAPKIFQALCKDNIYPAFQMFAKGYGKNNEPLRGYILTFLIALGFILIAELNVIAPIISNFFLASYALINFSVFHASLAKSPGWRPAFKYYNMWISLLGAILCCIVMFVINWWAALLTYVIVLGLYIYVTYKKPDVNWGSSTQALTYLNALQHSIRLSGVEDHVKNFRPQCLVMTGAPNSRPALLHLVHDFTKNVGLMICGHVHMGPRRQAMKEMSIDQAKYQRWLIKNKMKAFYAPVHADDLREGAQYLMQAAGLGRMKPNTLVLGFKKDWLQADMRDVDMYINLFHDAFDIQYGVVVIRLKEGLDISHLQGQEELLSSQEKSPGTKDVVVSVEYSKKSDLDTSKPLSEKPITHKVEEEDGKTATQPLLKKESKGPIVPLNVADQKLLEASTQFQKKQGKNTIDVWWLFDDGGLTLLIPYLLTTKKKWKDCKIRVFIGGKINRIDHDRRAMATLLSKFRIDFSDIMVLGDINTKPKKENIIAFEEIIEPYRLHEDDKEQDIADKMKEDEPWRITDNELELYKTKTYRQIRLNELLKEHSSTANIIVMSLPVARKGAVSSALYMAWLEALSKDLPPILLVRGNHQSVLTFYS

hNKCC1B = biological target: T2, hNKCC1B (Homo sapiens, UniProt P55011); test: 86Rb+ uptake in hNKCC1B-expressing Xenopus laevis oocytes; format: cell-based; details: 5 min, corrected for uninjected oocytes, median and range of 3–7 experiments
T2 construct: expressed in transfected cells; host or cells: Xenopus laevis oocytes injected with cRNA (pXOOM vector)
T2 sequence (P55011 1-1196 isoform P55011-3): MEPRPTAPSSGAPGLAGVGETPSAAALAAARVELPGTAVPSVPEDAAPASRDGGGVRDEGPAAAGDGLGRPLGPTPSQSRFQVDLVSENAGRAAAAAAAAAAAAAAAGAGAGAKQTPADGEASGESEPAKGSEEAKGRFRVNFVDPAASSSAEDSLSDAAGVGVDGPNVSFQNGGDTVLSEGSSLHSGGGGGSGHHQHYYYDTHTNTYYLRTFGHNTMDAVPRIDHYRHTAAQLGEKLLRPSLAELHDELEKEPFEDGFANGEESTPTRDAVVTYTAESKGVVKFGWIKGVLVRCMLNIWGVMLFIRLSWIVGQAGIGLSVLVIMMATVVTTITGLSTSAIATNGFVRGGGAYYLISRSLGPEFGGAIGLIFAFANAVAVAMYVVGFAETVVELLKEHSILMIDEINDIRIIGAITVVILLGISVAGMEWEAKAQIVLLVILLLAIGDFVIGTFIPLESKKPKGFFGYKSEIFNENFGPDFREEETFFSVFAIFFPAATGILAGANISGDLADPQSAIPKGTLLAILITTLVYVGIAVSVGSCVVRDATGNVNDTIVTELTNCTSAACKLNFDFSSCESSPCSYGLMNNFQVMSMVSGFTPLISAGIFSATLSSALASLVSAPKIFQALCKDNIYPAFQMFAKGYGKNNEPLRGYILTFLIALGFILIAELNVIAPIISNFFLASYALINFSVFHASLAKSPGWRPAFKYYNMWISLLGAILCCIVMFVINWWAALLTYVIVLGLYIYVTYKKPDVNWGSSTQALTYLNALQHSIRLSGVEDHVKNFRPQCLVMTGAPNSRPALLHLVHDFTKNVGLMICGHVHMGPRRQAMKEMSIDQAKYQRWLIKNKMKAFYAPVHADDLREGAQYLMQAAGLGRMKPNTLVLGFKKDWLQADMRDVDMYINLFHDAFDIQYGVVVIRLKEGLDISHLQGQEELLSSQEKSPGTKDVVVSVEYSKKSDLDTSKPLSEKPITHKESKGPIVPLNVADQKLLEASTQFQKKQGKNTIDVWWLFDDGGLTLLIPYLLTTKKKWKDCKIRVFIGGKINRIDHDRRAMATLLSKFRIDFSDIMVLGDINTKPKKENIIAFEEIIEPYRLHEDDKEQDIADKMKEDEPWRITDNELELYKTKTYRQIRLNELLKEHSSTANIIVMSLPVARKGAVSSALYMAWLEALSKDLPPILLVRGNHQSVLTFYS

NKCC2 [1] = system: NKCC2; set-up: method as in Greven[53]; details: Rat kidney TAL; ref Greven[53]; cited from earlier work
[2] = in words, cited from earlier work
[3] = rats, cited from earlier work
[4] = set-up: method as in DrugBank database; details: ref DrugBank database; cited from earlier work
[5] = set-up: method as in DrugBank database; details: ref DrugBank database; cited from earlier work; remark: listed apart in the source
[6] = set-up: method as in ref [30] = [30]; 30. Reilly, R. F. & Jackson, E. K. Goodman & Gilman’s. The Pharmacological Basis of Therapeutics . 12th ed. Brunton, L. L., Chabner, B. A. & Knollmann, B. C. (eds), pp. 671–719 (McGraw-Hill, New York); details: ref [30]; cited from earlier work
NKCC1 = details: Activated state, isoforms not differentiated, turkey erythrocytes, chick cardiac cells, winter flounder intestine, ref Palfrey et al.[48], Frelin et al.[49], O’Grady et al.[50], cited from earlier work
NKCC2 [7] = system: NKCC2; set-up: method as in Schlatter et al.[23]; details: Rabbit kidney TAL; ref Schlatter et al.[23]; cited from earlier work
NKCC2 [8] = system: NKCC2; set-up: method as in ref Palfrey et al.[48]; Schlatter et al.[23]; Frelin et al.[49]; O’Grady et al.[50]; Glanville et al.[51]; Hannaert et al.[52]; details: Rabbit kidney TAL; rat kidney TAL; NKCC2 isoforms not differentiated; ref Palfrey et al.[48]; Schlatter et al.[23]; Frelin et al.[49]; O’Grady et al.[50]; Glanville et al.[51]; Hannaert et al.[52]; cited from earlier work
hNKCC2 isoform A = details: Xenopus oocytes; ref Gillen et al.[55]; Carota et al.[56]; read-out: IC50 (µM) NKCC2 (hA); cited from earlier work
hNKCC2 isoform B = details: Xenopus oocytes; ref Gillen et al.[55]; Carota et al.[56]; read-out: IC50 (µM) NKCC2 (hB); cited from earlier work
NKCC2 [9] = system: NKCC2; set-up: method as in Wittner et al.[54]; details: Mouse and rabbit kidney TAL; ref Wittner et al.[54]; cited from earlier work
[10] = mIMCD-K2 cells, rat erythrocytes and thymocytes, Schlatter et al.[23], Glanville et al.[51], Hannaert et al.[52]

- IC50 (hNKCC1A): 0.246 µM
- Ratio hNKCC1A/ hNKCC1B (hNKCC1A): 1.25
- IC50 (hNKCC1B): 0.197 µM
SMILES: NS(=O)(=O)c1cc(-c2nnn[nH]2)c(NCc2cccs2)cc1Cl [Azosemide]
- IC50 (NKCC2 [1]): 3 µM
- plasma protein binding ([2]; ref [31]): highly bound to plasma proteins
- brain levels ([3]; 30 min following i.v. 20 mg/kg, below detection limit, ref [32]): < 0.05 µg/g
- pKa [4]: 7.38
- Lipophilicity (logP) [5]: 2.38
- clinical diuretic potency relative to furosemide [6]: about the same diuretic potency as furosemide

SMILES: NS(=O)(=O)c1cc(C(=O)O)cc(NCc2ccccc2)c1Oc1ccccc1 [Benzmetanide]
- IC50 (NKCC1): 0.05 to 0.3 µM

- IC50 (hNKCC1A): 1680 µM
- IC50 (hNKCC1B): 3070 µM
SMILES: C=C(CC)C(=O)c1ccc(OCC(=O)O)c(Cl)c1Cl [Ethacrynic acid]
- IC50 (NKCC2 [7]): 5.1 µM

SMILES: CCOC(=O)/C=C1\SC(N2CCCCC2)C(=O)N1C (stereo not drawn) [Etozolin]
- IC50 (NKCC2 [7]): > 100 µM

SMILES: NS(=O)(=O)c1cc(C(=O)O)c(NCc2ccco2)cc1Cl [Furosemide]
- IC50 (NKCC2 [8]): 3 to 7.1 µM
- IC50 (NKCC1; [10]): 7 to 23 µM
- IC50 (hNKCC2 isoform A): 15.1 µM
- IC50 (hNKCC2 isoform B): 7.2 µM

- IC50 (hNKCC1A): > 100 µM
- IC50 for hNKCC1A, IC50 (µM) (range) (hNKCC1A; listed as glibenclamide): did not inhibit; also recorded: inactive
- IC50 (hNKCC1B): > 100 µM
- IC50 for hNKCC1B, IC50 (µM) (range) (hNKCC1B; listed as glibenclamide): did not inhibit; also recorded: inactive
SMILES: COc1ccc(Cl)cc1C(=O)NCCc1ccc(S(=O)(=O)NC(=O)NC2CCCCC2)cc1 [Glybenclamide, 5-chloro-N-(2-{4-[(cyclohexylcarbamoyl)sulfamoyl]phenyl}ethyl)-2-methoxybenzamide]

SMILES: CC1(c2ccccc2)Cc2cc(OCC(=O)O)c(Cl)c(Cl)c2C1=O (stereo not drawn) [Indacrinone]
- IC50 (NKCC2 [7]): 12 µM

SMILES: CC(c1ccc(Cl)c(Cl)c1)N1N=C(N)CC1=O (stereo not drawn) [Muzolimine]
- IC50 (NKCC2 [7]): > 100 µM

SMILES: CN1C(=O)C(N2CCCCC2)S/C1=C/C(=O)O (stereo not drawn) [Ozolinon]
- IC50 (NKCC2 [7]): 11 µM

- IC50 (hNKCC1A): 3.35 µM
- Ratio hNKCC1A/ hNKCC1B (hNKCC1A): 2.02
- IC50 (hNKCC1B): 1.66 µM
SMILES: NS(=O)(=O)c1cc(C(=O)O)cc(N2CCCC2)c1Oc1ccccc1 [Piretanide]
- IC50 (NKCC2 [8]): 1 to 1.1 µM
- IC50 (NKCC1; [10]): 0.5 to 3 µM

- IC50 (hNKCC1A): 489 µM
- Ratio hNKCC1A/ hNKCC1B (hNKCC1A): 0.275
- IC50 (hNKCC1B): 1780 µM
SMILES: O=C(O)COc1ccc(C(=O)c2cccs2)c(Cl)c1Cl [Ticrynafen]
- IC50 (NKCC2 [7]): 410 µM

SMILES: CN=C1SCC(O)(c2ccc(Cl)c(S(N)(=O)=O)c2)N1C (stereo not drawn) [Tizolemide]
- IC50 (NKCC2 [7]): > 100 µM

- IC50 (hNKCC1A): 6.18 µM
- Ratio hNKCC1A/ hNKCC1B (hNKCC1A): 0.755
- IC50 (hNKCC1B): 8.19 µM
SMILES: Cc1cccc(Nc2ccncc2S(=O)(=O)NC(=O)NC(C)C)c1 [Torasemide]
- IC50 (NKCC2 [9]): 0.3 µM
- plasma protein binding ([2]; ref [33]): highly bound to plasma proteins
- brain:plasma concentration ratio ([3]; 30 min after i.v. 10 mg/kg, ref [34]): 0.00024
- clinical diuretic potency relative to furosemide [6]: about 3 times

- IC50 (hNKCC1A): > 1000 µM
- IC50 (hNKCC1B): > 1000 µM
SMILES: NS(=O)(=O)c1cc(C(=O)NN2CC3C4CCC(C4)C3C2)ccc1Cl (stereo not drawn) [Tripamide]

- IC50 (hNKCC1A): > 1750 µM
- IC50 for hNKCC1A, IC50 (µM) (range) (hNKCC1A): did not inhibit; also recorded: inactive
- IC50 (hNKCC1B): > 1750 µM
- IC50 for hNKCC1B, IC50 (µM) (range) (hNKCC1B): did not inhibit; also recorded: inactive
SMILES: Cc1cccc(C)c1NC(=O)c1cc(S(N)(=O)=O)c(Cl)cc1O [Xipamide, 4-chloro-5-sulfamoyl-2′,6′-salicyloxylidide]
